Assay results as given in paper PMC6017830, “Furan- and Thiophene-2-Carbonyl Amino Acid Derivatives Activate Hypoxia-Inducible Factor via Inhibition of Factor Inhibiting Hypoxia-Inducible Factor-1” (Molecules : A Journal of Synthetic Chemistry and Natural …, 2018).

test system: HIF-HRE transcriptional activity in SKN:HRE-MLuc cells (reflects FIH-1 inhibition); assay: HIF activity under hypoxia, HRE-MLuc luciferase reporter assay; format: cell-based, human; settings: Homo sapiens; 100 μM, SKN:HRE-MLuc cells, 3% O2, 24 h; read-out: 100 μM Activity (RLU intensity at 100 μM stimulation compared with the positive control DMOG)
Experimental: To evaluate HIF transactivation following FIH-1 inhibition […], we employed a luciferase reporter assay system in the human neuroblastoma cell line SK-N-BE(2)c. […] Hereafter these HRE reporter cells were designated SKN:HRE-MLuc cells.
SKN:HRE-MLuc (4 × 10^4) were incubated for 24 h on a 96 well culture plate. The medium was replaced with complete media and the test compounds (100, 25, 6.3 and 1.6 μM). DMSO (0.1%) was used as a vehicle control, DMOG (100 μM) and FG4592 (100 μM) were used as a PHDs or FIH-1 inhibitor. The cells were incubated for 24 h under a humidified atmosphere of 5% CO2 and 3% O2 at 37 °C. After incubation, the MLuc activity in culture media was measured with luciferase substrate (Takara, Shiga, Japan) by LB960 luminometer (Berthold, Wildbad, Germany). The HIF activity was calculated as the MLuc intensity, based on the vehicle and positive controls. The lower limit dose out of 100 μM, 25 μM, 6.3 μM, 1.6 μM was listed in Table 1 and Table 2, where 25% RLU intensity was measured using DMOG as a positive control.

SMILES	activation at 100 µM
COC(=O)[C@H](Cc1c[nH]c2ccccc12)NC(=O)c1ccc(-c2ccccc2)s1 [Compound 25, (S)-Methyl (5-phenylthiophene-2-carbonyl)tryptophanate]	0%
COC(=O)[C@H](C)NC(=O)c1ccc(-c2ccc(Oc3ccccc3)cc2)s1 [Compound 34, (S)-Methyl (5-(4-phenoxyphenyl)thiophene-2-carbonyl)alaninate]	0%
COC(=O)[C@H](Cc1c[nH]c2ccccc12)NC(=O)c1cc2ccccc2s1 [Compound 43, (S)-Methyl (benzothiophene-2-carbonyl)tryptophanate]	0%
CCOC(=O)[C@H](C)NC(=O)c1cc2ccccc2s1 [Compound 40, (S)-Ethyl (benzothiophene-2-carbonyl)alaninate]	0%
CCOC(=O)[C@H](C)NC(=O)c1ccc(C)s1 [Compound 13, (S)-Ethyl (5-methylthiophene-2-carbonyl)alaninate]	0%
COC(=O)[C@@H](Cc1c[nH]c2ccccc12)NC(=O)c1ccc(C)o1 [Compound 10, (R)-Methyl (5-methylfuran-2-carbonyl)tryptophanate]	0%
CCOC(=O)[C@H](C)NC(=O)c1ccc(-c2ccccc2)s1 [Compound 22, (S)-Ethyl (5-phenylthiophene-2-carbonyl)alaninate]	16%
COC(=O)[C@H](Cc1c[nH]c2ccccc12)NC(=O)c1cccs1 [Compound 5, (S)-Methyl (thiophene-2-carbonyl)tryptophanate]	0%
C[C@H](NC(=O)c1ccc(-c2ccccc2)s1)C(=O)O [Compound 21, (S)-(5-Phenylthiophene-2-carbonyl)alanine]	0%
CCOC(=O)[C@H](Cc1ccccc1)NC(=O)c1cc2ccccc2o1 [Compound 37, (S)-Ethyl (benzofuran-2-carbonyl)phenylalaninate]	0%
COC(=O)[C@@H](Cc1ccccc1)NC(=O)c1ccc(C)o1 [Compound 8, (R)-Methyl (5-methylfuran-2-carbonyl)phenylalaninate]	2%
COC(=O)[C@@H](Cc1ccccc1)NC(=O)c1ccc(C)s1 [Compound 14, (R)-Methyl (5-methylthiophene-2-carbonyl)phenylalaninate]	0%
O=C(N[C@@H](Cc1ccccc1)C(=O)O)c1ccc(-c2ccccc2)o1 [Compound 19, (S)-(5-Phenylfuran-2-carbonyl)phenylalanine]	0%
CCOC(=O)[C@H](Cc1c[nH]c2ccccc12)NC(=O)c1ccc(C)s1 [Compound 17, (S)-Ethyl (5-methylthiophene-2-carbonyl)tryptophanate]	49%
COC(=O)[C@H](Cc1c[nH]c2ccccc12)NC(=O)c1ccc(-c2ccc(Oc3ccccc3)cc2)s1 [Compound 36, (S)-Methyl (5-(4-phenoxyphenyl)thiophene-2-carbonyl)tryptophanate]	0%
COC(=O)CNC(=O)c1cccs1 [Compound 2, Methyl (thiophene-2-carbonyl)glycinate]	0%
COC(=O)[C@H](Cc1ccc(O)cc1)NC(=O)c1cc2ccccc2s1 [Compound 44, (S)-Methyl (benzothiophene-2-carbonyl)tyrosinate]	0%

same assay, conditions: Homo sapiens; SKN:HRE-MLuc cells, 3% O2, 24 h; doses 100, 25, 6.3, 1.6 μM; DMOG 100 μM as positive control; read-out: 25% Activity (lower dose limit showing 25% of the RLU intensity of the positive control DMOG)

SMILES	minimal effective concentration
COC(=O)[C@@H](Cc1c[nH]c2ccccc12)NC(=O)c1ccc(C)o1 [Compound 10, (R)-Methyl (5-methylfuran-2-carbonyl)tryptophanate]	6.3 µM
CCOC(=O)[C@H](Cc1c[nH]c2ccccc12)NC(=O)c1ccc(C)s1 [Compound 17, (S)-Ethyl (5-methylthiophene-2-carbonyl)tryptophanate]	100 µM

same assay, conditions: hypoxic conditions (3% O2), 24 h; reference compounds at 100 μM

SMILES	HIF activity (HRE-MLuc reporter), result in words
COC(=O)C(=O)N[C@H](Cc1ccccc1)C(=O)OC [DM-NOFD, dimethyl N-oxalyl-D-phenylalanine, reference compound]	significantly enhanced HIF activity

test system: SKN:HRE-MLuc cells; assay: MTS assay (cellular toxicity); format: cell-based, human; settings: Homo sapiens; MTS assay
Excerpt: Next, we evaluated the activation of HIF by furan- and thiophene-2-carbonyl amino acid derivatives using the evaluation methods described above. Simultaneously, we investigated cellular toxicity for those derivatives with a 3-(4,5-dimethylthiazol-2-yl)-5-(3-carboxymethoxyphenyl)-2-(4-sulfophenyl)-2H-tetrazolium (MTS) assay. To indicate cellular membrane permeability, the partition coefficients, which are frequently represented by calculated logP (clogP) are listed in Table 1 and Table 2.
Cellular toxicity was measured using the CellTiter 96® Aqueous One Solution Cell Proliferation Assay kit (Promega, Madison, WI, USA). The cells were stimulated with each compound and treated with the CellTiter solution. After incubation for 3 h, the absorbance of the solutions at 492 nm was measured by Multiskan FC (Thermo Fisher Scientific, Waltham, MS, USA). As a negative control, wells with culture media were used. Wells treated with DMSO (0.1%) were used as a positive control. The IC50 values were determined using these controls.

SMILES	IC50
COC(=O)[C@H](Cc1c[nH]c2ccccc12)NC(=O)c1ccc(-c2ccccc2)s1 [Compound 25, (S)-Methyl (5-phenylthiophene-2-carbonyl)tryptophanate]	> 100 µM
COC(=O)[C@H](C)NC(=O)c1ccc(-c2ccc(Oc3ccccc3)cc2)s1 [Compound 34, (S)-Methyl (5-(4-phenoxyphenyl)thiophene-2-carbonyl)alaninate]	> 100 µM
COC(=O)[C@H](Cc1c[nH]c2ccccc12)NC(=O)c1cc2ccccc2s1 [Compound 43, (S)-Methyl (benzothiophene-2-carbonyl)tryptophanate]	> 100 µM
CCOC(=O)[C@H](C)NC(=O)c1cc2ccccc2s1 [Compound 40, (S)-Ethyl (benzothiophene-2-carbonyl)alaninate]	> 100 µM
CCOC(=O)[C@H](C)NC(=O)c1ccc(C)s1 [Compound 13, (S)-Ethyl (5-methylthiophene-2-carbonyl)alaninate]	> 100 µM
COC(=O)[C@@H](Cc1c[nH]c2ccccc12)NC(=O)c1ccc(C)o1 [Compound 10, (R)-Methyl (5-methylfuran-2-carbonyl)tryptophanate]	> 100 µM
CCOC(=O)[C@H](C)NC(=O)c1ccc(-c2ccccc2)s1 [Compound 22, (S)-Ethyl (5-phenylthiophene-2-carbonyl)alaninate]	> 100 µM
COC(=O)[C@H](Cc1c[nH]c2ccccc12)NC(=O)c1cccs1 [Compound 5, (S)-Methyl (thiophene-2-carbonyl)tryptophanate]	> 100 µM
C[C@H](NC(=O)c1ccc(-c2ccccc2)s1)C(=O)O [Compound 21, (S)-(5-Phenylthiophene-2-carbonyl)alanine]	> 100 µM
CCOC(=O)[C@H](Cc1ccccc1)NC(=O)c1cc2ccccc2o1 [Compound 37, (S)-Ethyl (benzofuran-2-carbonyl)phenylalaninate]	> 100 µM
COC(=O)[C@@H](Cc1ccccc1)NC(=O)c1ccc(C)o1 [Compound 8, (R)-Methyl (5-methylfuran-2-carbonyl)phenylalaninate]	> 100 µM
COC(=O)[C@@H](Cc1ccccc1)NC(=O)c1ccc(C)s1 [Compound 14, (R)-Methyl (5-methylthiophene-2-carbonyl)phenylalaninate]	> 100 µM
O=C(N[C@@H](Cc1ccccc1)C(=O)O)c1ccc(-c2ccccc2)o1 [Compound 19, (S)-(5-Phenylfuran-2-carbonyl)phenylalanine]	> 100 µM
CCOC(=O)[C@H](Cc1c[nH]c2ccccc12)NC(=O)c1ccc(C)s1 [Compound 17, (S)-Ethyl (5-methylthiophene-2-carbonyl)tryptophanate]	> 100 µM
COC(=O)[C@H](Cc1c[nH]c2ccccc12)NC(=O)c1ccc(-c2ccc(Oc3ccccc3)cc2)s1 [Compound 36, (S)-Methyl (5-(4-phenoxyphenyl)thiophene-2-carbonyl)tryptophanate]	> 100 µM
COC(=O)CNC(=O)c1cccs1 [Compound 2, Methyl (thiophene-2-carbonyl)glycinate]	> 100 µM
COC(=O)[C@H](Cc1ccc(O)cc1)NC(=O)c1cc2ccccc2s1 [Compound 44, (S)-Methyl (benzothiophene-2-carbonyl)tyrosinate]	> 100 µM
